Laboratory results as given in PMC6974970 (Annals of Clinical Microbiology and Antimicrobials, 2020).
Where “and” joins values, the source holds several entries; their conditions need not be identical. Equal entries are not always repeated. Entries after “also recorded” stand apart in the source; their conditions may differ. Where two headings read alike, the source gives them in different places.

Assay: Pharmacokinetic monitoring of plasma LPV and RTV (HPLC/MS–MS) in TB/HIV co-infected patients on LPV/RTV plus rifabutin
Format: in vivo, human
Details: for concentration: read-out: C0 (plasma drug concentration before the morning dose); for Tmax, individual patients: unit from Table 2; for AUC(0-t): read-out: AUC0–12h; for concentration at 12 h: read-out: C12 (plasma drug concentration 12 h post-dose); for C1, individual patients: individual plasma concentration at 1 h; for C2, individual patients: individual plasma concentration at 2 h; for C3, individual patients: individual plasma concentration at 3 h; for C4, individual patients: individual plasma concentration at 4 h; for C6, individual patients: individual plasma concentration at 6 h; for C8, individual patients: individual plasma concentration at 8 h; for C12, individual patients: individual plasma concentration at 12 h; for C0, individual patients: individual plasma concentration before dose, per patient
Description: This was a pharmacokinetic study based on the use of LPV and RTV in HIV and tuberculosis co-infected adults. They were being treated with rifabutin 150 mg thrice weekly or rifabutin 300 mg thrice weekly.
The patients were participating in the RIFLOPI study registered on PACTR201310000629390. They were recruited from the Bogodogo and Kossodo district hospitals in Ouagadougou from May 2013 to December 2015. Study inclusion criteria were that the patients were between 18 and 60 years of age, HIV-1 infected with pulmonary tuberculosis confirmed or suspected. […] The 2 weeks minimum delay comes from the time frame of building up full induction effect. The participating patients were divided into two groups. The first group (RBT 150 mg thrice weekly) consisted of nine patients on antiretroviral and anti-tuberculosis treatment including LPV (LPV/RTV 400/100 mg + 2INTI) twice daily in combination with rifabutin 150 mg thrice weekly and standard ethambutol–isoniazid–pyrazinamide. The second group (RBT 300 mg thrice weekly) consisted of seven patients treated with (LPV/RTV 400/100 mg + 2INTI) twice daily in combination with rifabutin 300 mg thrice weekly and standard ethambutol–isoniazid–pyrazinamide. […] Each patient took a daily dose of cotrimoxazole to prevent opportunistic infections associated with HIV.
Pharmacokinetic monitoring was performed after 2 weeks of combined LPV/RTV and RBT treatment. On the day before pharmacokinetic monitoring, patients were admitted and fasted from midnight onwards. The pharmacokinetic assessment was conducted on a day when a dose of RBT was taken. The first measure of the pharmacokinetic monitoring (time zero) was performed on an empty stomach before taking the daily dose of RBT and LPV/RTV. After the first blood sampling, patients immediately (within 5 min) took their rifabutin and LPV/RTV regimen. Subsequent blood samples for pharmacokinetic monitoring were collected at 1, 2, 3, 4, 6, 8 and 12 h after combined drug ingestion. Breakfast (a sandwich and water) was served to the patients 2 h after drug ingestion.
Two to three millilitres of blood was collected in a heparinized primary vial and centrifuged at 3000 rpm for 10 min within 1 h of collection. The plasma was stored at − 20 °C until transportation to the laboratory for the pharmacokinetic analysis.
A high-performance liquid chromatography–mass spectrometry (HPLC/MS–MS) assay previously described by Moyer et al. was used to determine the LPV and RTV plasma concentrations at the Service of Clinical Pharmacology (IRCCS S Matteo, Pavia, Italy). The limit of quantification was 0.05 µg/mL for both drugs. The assay was validated in accordance with the European Medicines Agency (EMA) “Guidelines on bioanalytical method validation. The areas under the plasma concentration–time curve (AUC) were calculated by using the linear trapezoidal rule.
Data were entered using EpiData (http://www.epidata.dk) and Excel and analysed with Stata, version 13 (https://www.stata.com, StataCorp LP; College Station, TX, USA). Descriptive statistics were used to describe the patient’s characteristics and to calculate the frequencies, proportions and medians with interquartile intervals. Statistical comparisons were made using Fisher’s exact test with 5% set as the significance level. For the LPV and RTV pharmacokinetic profile, we determined for each patient the Cmax (peak concentration measured (µg/mL)), the Ctrough (drug plasma concentration measured just prior to administration of the drug dose (µg/mL)), the Tmax (time for Cmax), the area under the curve during a dosing interval (AUC0–12 = plasma concentration * time (µg × h/mL) and the apparent clearance (CL/F, true clearance divided by the true absolute bioavailability).

[1] = first group RBT 150 mg TPW, listed as RTV
[2] = human, plasma, oral, LPV/RTV 400/100 mg twice daily with RBT 150 mg TPW (n = 9), median and IQR
[3] = human, plasma, oral, LPV/RTV 400/100 mg twice daily with RBT 300 mg TPW (n = 7), median and IQR
[4] = second group RBT 300 mg TPW, listed as RTV

With `CC(C)c1nc(CN(C)C(=O)N[C@H](C(=O)N[C@@H](Cc2ccccc2)C[C@H](O)[C@H](Cc2ccccc2)NC(=O)OCc2cncs2)C(C)C)cs1` [Ritonavir, ritonavir] the concentration (LPV/RTV 400/100 mg twice daily with RBT 150 mg TPW (arm A, n = 9), median and IQR, plasma) was 2100 ng/mL, the concentration (LPV/RTV 400/100 mg twice daily with RBT 300 mg TPW (arm B, n = 7), median and IQR, plasma) was 1600 ng/mL and the “AUC0–12, individual patients” value [1] was 10800 ng·h/mL and 23500 ng·h/mL and 14800 ng·h/mL and 7800 ng·h/mL and 8900 ng·h/mL and 12800 ng·h/mL and 12200 ng·h/mL and 18500 ng·h/mL. The “Cl, individual patients” value [1] was 2.83 mL/min/kg and 1.3 mL/min/kg and 1.83 mL/min/kg and 4.17 mL/min/kg and 3.17 mL/min/kg and 3 mL/min/kg and 2.5 mL/min/kg, the “Cmax, individual patients” value [1] was 3600 ng/mL and 2900 ng/mL and 1280 ng/mL and 1860 ng/mL and 2260 ng/mL and 2740 ng/mL and 3160 ng/mL and the “Tmax, individual patients” value (first group RBT 150 mg TPW) was 3 h. For the same molecule, the “Tmax, individual patients” value [1] was 1 h and 4 h and 6 h, the Cmax (human, plasma, oral, 150 mg, first group RBT 150 mg TPW, read-out: Cmax, individual patients) was 1910 ng/mL and the AUC(0-t) [2] was 12700 ng·h/mL. It also gave a concentration at 12 h [2] of 1700 ng/mL, a Cmax (human, plasma, oral, LPV/RTV 400/100 mg twice daily with RBT 150 mg TPW (n = 9), median and IQR, read-out: Cmax) of 2700 ng/mL and a Tmax [3] of 2 h. It also gave an AUC(0-t) [3] of 6600 ng·h/mL, a concentration at 12 h [3] of 600 ng/mL and a CL/F (human, plasma, oral, LPV/RTV 400/100 mg twice daily with RBT 300 mg TPW (n = 7), median and IQR, read-out: CL (apparent clearance, CL/F) (converted)) of 4.83 mL/min/kg. The Cmax (human, plasma, oral, LPV/RTV 400/100 mg twice daily with RBT 300 mg TPW (n = 7), median and IQR, read-out: Cmax) was 1500 ng/mL, the “C1, individual patients” value [1] was 1.91 µg/mL and 3.8 µg/mL and 3.1 µg/mL and 0.4 µg/mL and 1.86 µg/mL and 2 µg/mL and the “C1, individual patients” value [4] was “Low and 0.37 µg/mL and 1.97 µg/mL and 2.14 µg/mL and 1.64 µg/mL and 1.5 µg/mL”. For the same molecule, the “C2, individual patients” value [1] was 1.72 µg/mL and 3.6 µg/mL and 2.6 µg/mL and 1.7 µg/mL and 2.5 µg/mL and 2.24 µg/mL, the “C2, individual patients” value [4] was 1 µg/mL and 0.4 µg/mL and 0.8 µg/mL and 2.22 µg/mL and 2.43 µg/mL and 1.9 µg/mL and 1.12 µg/mL and the “C3, individual patients” value [1] was 1.65 µg/mL and 3.5 µg/mL and 2.9 µg/mL and 0.64 µg/mL and 0.4 µg/mL and 1.81 µg/mL. The “C3, individual patients” value [4] was 1.33 µg/mL and 0.3 µg/mL and 0.8 µg/mL and 1.41 µg/mL and 2.4 µg/mL and 1.9 µg/mL and 1.2 µg/mL, the “C4, individual patients” value [1] was 1.2 µg/mL and 2.7 µg/mL and 1.7 µg/mL and 1.28 µg/mL and 0.5 µg/mL and 2.26 µg/mL and the “C4, individual patients” value [4] was 1.44 µg/mL and 0.38 µg/mL and 0.9 µg/mL and 0.95 µg/mL and 1.67 µg/mL and 2 µg/mL and 1 µg/mL. For the same molecule, the “C6, individual patients” value [1] was 1.64 µg/mL and 3.3 µg/mL and 1.5 µg/mL and 0.7 µg/mL and 1 µg/mL, the “C6, individual patients” value [4] was 1.22 µg/mL and 0.3 µg/mL and 0.8 µg/mL and 1.45 µg/mL and 1.3 µg/mL and 2.5 µg/mL and 0.5 µg/mL and the “C8, individual patients” value [1] was 1.24 µg/mL and 2.8 µg/mL and 1.2 µg/mL and 2.4 µg/mL and 1 µg/mL and 1.5 µg/mL. For the same molecule, the “C8, individual patients” value [4] was 1.1 µg/mL and 0.28 µg/mL and 0.9 µg/mL and 0.66 µg/mL and 1 µg/mL and 2 µg/mL and 0.13 µg/mL, the “C12, individual patients” value [1] was 1.1 µg/mL and 3.6 µg/mL and 0.6 µg/mL and 0.2 µg/mL and 1.33 µg/mL and 1.7 µg/mL and the “C12, individual patients” value [4] was 0.62 µg/mL and low and 0.6 µg/mL and 0.53 µg/mL and 0.7 µg/mL and 1.86 µg/mL and Low. For the same molecule, the “C0, individual patients” value [1] was 1850 ng/mL and 4110 ng/mL and 3100 ng/mL and 1200 ng/mL and 2100 ng/mL and 1430 ng/mL, the “C0, individual patients” value [4] was “below the limit of quantification and Low and 0.41 µg/mL and 0.2 µg/mL and 2.72 µg/mL and 1.84 µg/mL and 1.55 µg/mL and 2.3 µg/mL” and the “reduction of plasma concentrations, RBT 300 mg versus RBT 150 mg” value (patients receiving RBT 300 mg TPW compared to RBT 150 mg TPW, listed as RTV) was “nearly halved; also recorded: nearly half”. For the same molecule, the “Cl, individual patients” value [4] was 6.5 mL/min/kg and 13.5 mL/min/kg and 9 mL/min/kg and 2.67 mL/min/kg and 3.33 mL/min/kg and 2.5 mL/min/kg and 4.83 mL/min/kg and the “Tmax, individual patients” value [4] was 4 h and 6 h and 1 h.
